In paper PMC7260718, “Novel routes towards bioplastics from plants: elucidation of the methylperillate biosynthesis pathway from Salvia dorisiana trichomes” (Journal of Experimental Botany, 2020):

Tests used:
SdPS = molecular target: T1, SdPS (Salvia dorisiana, UniProt A0A6G5RTD3); experiment: in vitro terpene synthase assay, GC-MS; assay type: cell-based; conditions: product beta-pinene; conditions by reference to earlier study
T1 construct: gene PS; plastid targeting signal removed, pCDF-duet, E. coli
T1 sequence (A0A6G5RTD3 60-600): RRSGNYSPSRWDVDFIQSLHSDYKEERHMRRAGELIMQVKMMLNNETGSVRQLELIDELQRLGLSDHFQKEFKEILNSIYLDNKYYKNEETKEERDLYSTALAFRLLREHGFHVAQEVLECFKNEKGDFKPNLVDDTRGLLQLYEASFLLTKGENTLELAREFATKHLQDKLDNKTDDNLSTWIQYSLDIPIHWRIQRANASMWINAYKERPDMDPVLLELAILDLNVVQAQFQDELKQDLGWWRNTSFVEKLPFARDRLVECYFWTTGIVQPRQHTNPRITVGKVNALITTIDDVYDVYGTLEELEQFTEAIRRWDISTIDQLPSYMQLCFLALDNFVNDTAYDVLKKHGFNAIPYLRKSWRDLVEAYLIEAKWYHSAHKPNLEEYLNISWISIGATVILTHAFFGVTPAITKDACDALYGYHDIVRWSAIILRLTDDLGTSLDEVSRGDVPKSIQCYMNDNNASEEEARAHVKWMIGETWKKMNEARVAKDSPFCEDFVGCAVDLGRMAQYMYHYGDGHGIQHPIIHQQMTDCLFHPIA

SdPCS = molecular target: T2, SdPCS (Salvia dorisiana, UniProt A0A6G5RV47); experiment: in vitro terpene synthase assay, GC-MS; assay type: cell-based; conditions: products alpha-pinene and camphene; conditions by reference to earlier study
T2 construct: gene PCS; plastid targeting signal removed, pCDF-duet, E. coli
T2 sequence (A0A6G5RV47 52-589): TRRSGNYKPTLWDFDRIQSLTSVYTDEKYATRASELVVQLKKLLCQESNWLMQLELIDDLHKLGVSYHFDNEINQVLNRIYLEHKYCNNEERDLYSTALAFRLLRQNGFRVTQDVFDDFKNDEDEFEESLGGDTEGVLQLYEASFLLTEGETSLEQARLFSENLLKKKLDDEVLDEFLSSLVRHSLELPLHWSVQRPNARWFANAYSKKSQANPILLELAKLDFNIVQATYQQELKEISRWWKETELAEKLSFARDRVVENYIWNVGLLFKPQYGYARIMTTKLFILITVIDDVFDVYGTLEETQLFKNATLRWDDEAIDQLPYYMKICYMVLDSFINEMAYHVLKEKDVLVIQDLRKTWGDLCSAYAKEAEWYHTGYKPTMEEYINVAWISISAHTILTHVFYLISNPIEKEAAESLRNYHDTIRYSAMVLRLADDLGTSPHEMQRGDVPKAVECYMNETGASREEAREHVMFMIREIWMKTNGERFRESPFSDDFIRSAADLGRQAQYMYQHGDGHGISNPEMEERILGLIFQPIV

SdSaS = molecular target: T3, SdSaS (Salvia dorisiana, UniProt A0A6G5RTE6); experiment: in vitro terpene synthase assay, GC-MS; assay type: cell-based; conditions: product sabinene; conditions by reference to earlier study
T3 construct: gene SaS; plastid targeting signal removed, pCDF-duet, E. coli
T3 sequence (A0A6G5RTE6 1-538): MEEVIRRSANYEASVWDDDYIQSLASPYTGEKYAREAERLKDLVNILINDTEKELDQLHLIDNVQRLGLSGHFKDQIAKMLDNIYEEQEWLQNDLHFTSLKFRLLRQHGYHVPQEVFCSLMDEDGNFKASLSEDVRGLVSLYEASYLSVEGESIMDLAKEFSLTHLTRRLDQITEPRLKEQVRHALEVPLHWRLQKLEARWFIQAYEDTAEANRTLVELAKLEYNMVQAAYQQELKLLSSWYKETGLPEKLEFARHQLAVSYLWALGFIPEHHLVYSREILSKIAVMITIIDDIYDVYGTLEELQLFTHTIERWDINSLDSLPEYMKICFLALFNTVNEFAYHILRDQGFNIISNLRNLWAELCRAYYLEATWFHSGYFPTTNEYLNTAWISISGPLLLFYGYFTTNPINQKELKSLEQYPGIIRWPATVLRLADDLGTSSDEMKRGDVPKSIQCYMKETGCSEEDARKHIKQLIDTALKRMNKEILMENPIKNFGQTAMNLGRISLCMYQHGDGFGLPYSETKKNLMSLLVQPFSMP

SdLiS = molecular target: T4, SdLiS (Salvia dorisiana, UniProt A0A6G5RUG7); experiment: in vitro terpene synthase assay, GC-MS; assay type: cell-based; conditions: product linalool; conditions by reference to earlier study
T4 construct: gene LiS; plastid targeting signal removed, pCDF-duet, E. coli
T4 sequence (A0A6G5RUG7 55-582 limits assumed): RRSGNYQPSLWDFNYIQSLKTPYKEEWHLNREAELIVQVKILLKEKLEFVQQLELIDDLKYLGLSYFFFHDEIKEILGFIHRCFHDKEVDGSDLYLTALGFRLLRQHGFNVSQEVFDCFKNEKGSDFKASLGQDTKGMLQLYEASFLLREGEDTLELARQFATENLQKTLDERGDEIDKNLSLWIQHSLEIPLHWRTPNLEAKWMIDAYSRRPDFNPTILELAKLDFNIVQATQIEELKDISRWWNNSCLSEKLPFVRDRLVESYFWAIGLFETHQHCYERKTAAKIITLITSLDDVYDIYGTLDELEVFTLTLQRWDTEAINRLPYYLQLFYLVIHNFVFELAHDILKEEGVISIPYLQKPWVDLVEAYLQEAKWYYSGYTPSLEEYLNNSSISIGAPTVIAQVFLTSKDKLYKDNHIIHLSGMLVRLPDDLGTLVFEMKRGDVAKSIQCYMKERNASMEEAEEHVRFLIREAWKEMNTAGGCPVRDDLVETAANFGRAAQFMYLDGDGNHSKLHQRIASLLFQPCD

SdEuS = molecular target: T5, SdEuS (Salvia dorisiana, UniProt A0A6G5RUA2); experiment: in vitro terpene synthase assay, GC-MS; assay type: cell-based; conditions: product eucalyptol; conditions by reference to earlier study
T5 construct: gene EuS; plastid targeting signal removed, pCDF-duet, E. coli
T5 sequence (A0A6G5RUA2 55-578): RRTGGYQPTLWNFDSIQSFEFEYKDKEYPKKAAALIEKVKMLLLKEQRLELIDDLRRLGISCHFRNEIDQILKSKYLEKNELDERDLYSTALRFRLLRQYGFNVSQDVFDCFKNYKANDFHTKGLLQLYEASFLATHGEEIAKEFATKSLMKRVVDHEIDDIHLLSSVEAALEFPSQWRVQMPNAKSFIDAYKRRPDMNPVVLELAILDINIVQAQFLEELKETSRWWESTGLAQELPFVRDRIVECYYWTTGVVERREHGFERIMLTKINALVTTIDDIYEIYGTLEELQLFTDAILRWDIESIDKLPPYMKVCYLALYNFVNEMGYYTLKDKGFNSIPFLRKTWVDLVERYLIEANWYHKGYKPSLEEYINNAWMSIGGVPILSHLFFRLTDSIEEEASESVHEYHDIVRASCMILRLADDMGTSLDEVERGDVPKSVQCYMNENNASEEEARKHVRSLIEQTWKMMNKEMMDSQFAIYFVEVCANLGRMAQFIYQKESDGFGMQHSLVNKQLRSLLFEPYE

SdL7H = molecular target: T6, SdL7H (Salvia dorisiana, UniProt A0A6G5RTT4); experiment: GC-MS of perillyl alcohol in culture extract; assay type: cell-based; conditions: yeast co-expressing limonene synthase, 30 °C, 96 h; also N. benthamiana with SdLS
T6 construct: gene L7H; expressed in Saccharomyces cerevisiae (limonene-producing strain Sc-PftLS) from pTEF plasmid; also in Nicotiana benthamiana
T6 sequence (A0A6G5RTT4 1-494): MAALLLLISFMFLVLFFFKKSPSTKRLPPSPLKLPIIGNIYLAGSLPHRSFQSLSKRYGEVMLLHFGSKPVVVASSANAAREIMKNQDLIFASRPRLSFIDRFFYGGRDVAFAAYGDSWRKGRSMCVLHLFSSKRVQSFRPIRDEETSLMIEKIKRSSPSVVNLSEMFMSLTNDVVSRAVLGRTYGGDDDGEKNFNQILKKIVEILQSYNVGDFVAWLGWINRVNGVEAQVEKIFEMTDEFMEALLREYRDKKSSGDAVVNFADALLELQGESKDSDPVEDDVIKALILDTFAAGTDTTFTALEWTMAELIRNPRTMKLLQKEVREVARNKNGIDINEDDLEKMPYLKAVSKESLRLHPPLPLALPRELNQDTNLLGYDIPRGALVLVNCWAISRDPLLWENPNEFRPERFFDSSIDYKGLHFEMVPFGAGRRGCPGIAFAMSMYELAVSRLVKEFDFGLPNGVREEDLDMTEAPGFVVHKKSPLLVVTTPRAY

SdPAOMT = molecular target: T7, SdPAOMT (Salvia dorisiana, UniProt A0A6G5RV57); experiment: GC-MS of methyl ester product; assay type: biochemical; conditions: E. coli cell-free extract; 1 mM substrate, 1.28 mM SAM (from stocks), Tris-HCl pH 7.0, room temperature, 1 h
T7 construct: gene PAOMT; full length, pCDF-duet, E. coli BL21(DE3) cell-free extract
T7 sequence (A0A6G5RV57 1-359): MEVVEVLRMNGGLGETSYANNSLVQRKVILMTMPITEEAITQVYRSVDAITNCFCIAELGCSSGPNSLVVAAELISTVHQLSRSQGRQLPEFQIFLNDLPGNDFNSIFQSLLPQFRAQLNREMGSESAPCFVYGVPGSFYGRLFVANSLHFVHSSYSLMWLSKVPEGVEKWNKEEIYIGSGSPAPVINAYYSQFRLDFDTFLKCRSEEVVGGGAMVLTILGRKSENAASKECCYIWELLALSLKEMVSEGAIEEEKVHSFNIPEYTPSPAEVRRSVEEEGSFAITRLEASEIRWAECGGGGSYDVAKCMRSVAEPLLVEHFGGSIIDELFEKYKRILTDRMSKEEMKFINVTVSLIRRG

SdOMT4 = molecular target: T8, SdOMT4 (Salvia dorisiana, UniProt A0A6G5RUB3); experiment: headspace GC-MS of methylperillate; conditions: N. benthamiana leaves co-infiltrated with perillic acid; minor activity
T8 construct: gene OMT4; transient expression in Nicotiana benthamiana leaves
T8 sequence (A0A6G5RUB3 1-349): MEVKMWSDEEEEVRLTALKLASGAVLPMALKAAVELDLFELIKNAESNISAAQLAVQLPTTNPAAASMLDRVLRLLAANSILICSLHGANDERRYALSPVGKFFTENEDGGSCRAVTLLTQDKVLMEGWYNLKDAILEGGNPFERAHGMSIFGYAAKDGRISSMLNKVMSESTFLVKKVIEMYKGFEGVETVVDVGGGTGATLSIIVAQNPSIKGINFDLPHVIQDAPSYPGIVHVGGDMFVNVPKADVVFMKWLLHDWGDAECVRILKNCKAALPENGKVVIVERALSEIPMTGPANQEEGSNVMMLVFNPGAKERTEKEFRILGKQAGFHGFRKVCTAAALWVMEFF

SdOMT9 = molecular target: T9, SdOMT9 (Salvia dorisiana, UniProt A0A6G5RTF7); experiment: headspace GC-MS of methylperillate; conditions: N. benthamiana leaves co-infiltrated with perillic acid; minor activity
T9 construct: gene OMT9; transient expression in Nicotiana benthamiana leaves
T9 sequence (A0A6G5RTF7 1-344): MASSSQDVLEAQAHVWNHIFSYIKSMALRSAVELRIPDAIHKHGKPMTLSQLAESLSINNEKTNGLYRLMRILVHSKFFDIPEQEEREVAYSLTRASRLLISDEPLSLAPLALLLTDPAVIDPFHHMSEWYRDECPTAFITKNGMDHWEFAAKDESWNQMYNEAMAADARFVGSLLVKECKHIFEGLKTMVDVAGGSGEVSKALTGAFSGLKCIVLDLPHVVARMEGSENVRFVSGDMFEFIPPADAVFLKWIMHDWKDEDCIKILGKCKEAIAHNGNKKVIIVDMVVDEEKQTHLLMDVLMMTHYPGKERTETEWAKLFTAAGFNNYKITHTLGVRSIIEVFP

SdPOHDH = molecular target: T10, SdPOHDH (Salvia dorisiana, UniProt A0A6G5RUH8); experiment: LC-MS of perillyl aldehyde markers; conditions: N. benthamiana leaves infiltrated with 400 µM perillyl alcohol, 4 h
T10 construct: gene POHDH; transient expression in Nicotiana benthamiana leaves (pB7WG2)
T10 sequence (A0A6G5RUH8 1-370): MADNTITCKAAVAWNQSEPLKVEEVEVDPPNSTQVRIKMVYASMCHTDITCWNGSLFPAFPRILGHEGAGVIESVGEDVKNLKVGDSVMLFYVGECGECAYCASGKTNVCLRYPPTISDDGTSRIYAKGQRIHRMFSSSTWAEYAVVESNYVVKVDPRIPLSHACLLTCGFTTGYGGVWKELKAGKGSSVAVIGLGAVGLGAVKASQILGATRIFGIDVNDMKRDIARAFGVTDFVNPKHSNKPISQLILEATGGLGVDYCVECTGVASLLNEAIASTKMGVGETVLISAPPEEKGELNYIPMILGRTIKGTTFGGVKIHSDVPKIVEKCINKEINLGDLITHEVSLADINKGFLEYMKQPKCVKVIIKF

SMILES: CC(C)=CCC/C(C)=C/COP(=O)(O)OP(=O)(O)O [geranyl diphosphate]
- in vitro terpene synthase assay, GC-MS (SdPS): characterized by in vitro assays, including a β-pinene synthase SdPS
- in vitro terpene synthase assay, GC-MS (SdPCS): an α-pinene/camphene synthase SdPCS
- in vitro terpene synthase assay, GC-MS (SdSaS): a sabinene synthase SdSaS
- in vitro terpene synthase assay, GC-MS (SdLiS): a linalool synthase SdLiS
- in vitro terpene synthase assay, GC-MS (SdEuS): a eucalyptol synthase SdEuS

SMILES: C=C(C)[C@@H]1CC=C(C)CC1 [limonene]
- GC-MS of perillyl alcohol in culture extract (SdL7H): indicating that limonene is indeed used as a substrate

SMILES: C=C(C)[C@@H]1CC=C(C(=O)O)CC1 [perillic acid]
- GC-MS of methyl ester product (SdPAOMT): Cell-free extracts were tested with BA, SA, and PA as substrates, and SAM as methyl donor
- headspace GC-MS of methylperillate (SdOMT4): only SdOMT4 and SdOMT9 showed minor MePA formation
- headspace GC-MS of methylperillate (SdOMT9): only SdOMT4 and SdOMT9 showed minor MePA formation

SMILES: C=C(C)[C@@H]1CC=C(CO)CC1 [perillyl alcohol]
- LC-MS of perillyl aldehyde markers (SdPOHDH): SdPOHDH converted POH to PAldH

SMILES: O=C(O)c1ccccc1O [salicylic acid]
- GC-MS of methyl ester product (SdPAOMT): Methylated products were detected for all three substrates
